Here are results for one compound from US8653046B2, “Controlling transgene expression across the skin” (ETH Zurich, priority 2009, dated 2014).

For this data set, the system named is CHO-K1. Briefly: Toxicity of flavonoids: CHO-K1 transiently transfected with pSEAP2-Control, SEAP levels after 48 h. The following applies: 0, 25, 50 μM, genistein cytotoxic only at 50 μM. As for the experimental part:
(A) Toxicity of flavonoids. CHO-K1 are transiently transfected with pSEAP2-Control, and cultivated in medium supplemented with different flavonoids (0, 25, 50 μM). SEAP levels are scored after 48 h.
CHO-K1 are transiently (co-)transfected with either pMG10 (PTtgR1-SEAP-pA) and pMG11 (PSV40-TtgA1-pA), to score regulation performance, or with pSEAP2-Control (PSV40-SEAP-pA), to assess compound-related cytotoxicity, and then cultivated for 48 h in medium containing different concentrations (0, 25, 50 μM) of specific flavonoid type compounds (berberine, butylparaben, genistein, luteolin, β-naphthol, naringenin, phloretin, phloridzin or quercetin) before SEAP production is profiled (FIG. 5A).
Wild-type Chinese hamster ovary cells (CHO-K1, ATCC: CCL-61) and their derivatives are cultivated in standard medium: ChoMaster® HTS (Cell Culture Technologies, Gravesano, Switzerland) supplemented with 5% (v/v) fetal calf serum (FCS, PAN Biotech GmbH, Aidenbach, Germany, Cat. No. 3302, Lot No. P251110) and 1% (v/v) penicillin/streptomycin solution (Sigma, St Louis, Mo., USA, Cat. No. P4458). Human embryonic kidney cells (HEK-293, Mitta B., et al., 2002, Nucleic Acids Res 30(21):e113), African green monkey kidney cells (COS-7, ATCC: CRL-1651), baby hamster kidney cells (BHK-21, ATCC: CCL10), human fibrosarcoma cells (HT-1080, ATCC: CCL-121), the human keratinocyte cell line HaCaT (Boukamp P., et al., 1988, J Cell Biol 106(3):761-771) and mouse fibroblasts (NIH/3T3, ATCC: CRL-1658) are cultured in Dulbecco's modified Eagle's medium (DMEM; Invitrogen, Cat. No. 52100-39) supplemented with 10% FCS (v/v) and 1% (v/v) penicillin/streptomycin solution. Primary human foreskin fibroblasts are cultivated in DMEM supplemented with 20% FCS (v/v) and 1% (v/v) penicillin/streptomycin solution and primary human foreskin keratinocytes are cultured in chemically defined serum-free keratinocyte medium (Invitrogen, Cat. No. 10744019). All cell types are cultivated at 37° C. in a 5% CO2-containing humidified atmosphere. For transient transfection of CHO-K1, 1 μg of total plasmid DNA (for co-transfection an equal amount of each plasmid) is transfected into 50,000 cells per well of a 24-well plate according to an optimized calcium phosphate protocol (Greber D., Fussenegger M., 2007, Biotechnol Bioeng 96(5):821-834). Plasmid DNA is diluted to a total volume of 25 μL 0.5 M CaCl2 solution, which is mixed with 25 μL 2×HBS solution (50 mM HEPES, 280 mM NaCl, 1.5 mM Na2HPO4, pH 7.1). After incubation for 15 min at room temperature, the precipitates are immediately added to the well and centrifuged onto the cells (5 min at 1,200×g) to increase transfection efficiency. After 3 h, the cells are treated with 0.5 mL glycerol solution (ChoMaster® HTS medium containing 15% glycerol) for 60 sec. After washing once with phosphate-buffered saline (PBS, Dulbecco's Phosphate-Buffered Saline; Invitrogen, Cat. No. 21600-0069), cells are cultivated in 0.5 mL standard ChoMaster® HTS medium in the presence or absence of different concentrations of phloretin. For transfection of BHK-21, COS-7 and HEK-293, plasmid DNA-Ca2PO4 precipitate is prepared and applied to the cells as described above. HEK-293 and COS-7 cells are washed once with PBS after 3 h incubation with the DNA-Ca2PO4 precipitate and subsequently cultivated in standard DMEM, while BHK-21 cells are incubated overnight with the precipitates and then cultivated in DMEM medium after being washed once with PBS. […]

Consider `O=C(CCc1ccc(O)cc1)c1c(O)cc(O)cc1O` [phloretin, 3-[4-hydroxyphenyl]-1-[2,4,6-trihydroxyphenyl]-1-propanone], for which the “compound-related cytotoxicity / cell viability” value is “do not reduce cell viability”.
